# Measurements as given in PMC8748687 (Nature Communications, 2022).
# Test system: TCR YLQ7
# Assay type: binding, human
# Conditions: not given
row,Sequence,"Measured TCR ΔΔG, YLQ7"
1,YLAPRTFML [GD_pangolin YLQ ortholog],1.7 kcal/mol

# Same assay, conditions: read-out: KD of TCR YLQ7 for peptide–HLA-A2
row,Sequence,Kd
1,KLQPLTFLL [MERS-KLQ],> 50 µM
2,PLSKRQYLL [HKU1-PLS],> 50 µM
3,PLTSRQYLL [OC43-PLT],> 50 µM
4,YLKPTTFML [SARS-YLK],> 50 µM

# Target: TCR RLQ3
# Assay type: binding, human
# Conditions: read-out: KD of TCR RLQ3 for peptide–HLA-A2
row,Sequence,Kd
1,RLAALNAFV [NL63-RLA],> 100 µM
2,RLAALNVFV [229E-RLA],> 100 µM
3,RLTALNAYV [HKU1-RLT],> 100 µM
4,RLTTLNAFV [MERS-RLT],> 100 µM
